Target: HPV-16 E2 protein (Human papillomavirus type 16, UniProt P03120)
Assay: Determination of dissociation constants by surface plasmon resonance (Biacore 3000, captured GST-E2 fusion)
Type: binding
Conditions: steady state model, PBST containing 2% (v/v) DMF, read-out: dissociation constant
Experimental: Surface Plasmon Resonance Instrument. Surface plasmon resonance experiments were performed with a Biacore® 3000 Biosensor (Biacore AB, Uppsala, Sweden). To keep the instrument in good working condition, a series of washing steps were performed on a weekly basis. In addition to the prescribed maintenance washes, the fluidic system was primed three times in a row with the following reagents: 0.5% (w/v) SDS, 6 M urea, 1% (v/v) acetic acid, and 0.2 M NaHCO3. When not in use, a standby program injects water at a flow rate of 5 μL/minute to prevent salt build-up in the lines or integrated fluidic cartridge. Whenever running buffer was changed, the system was primed three times in order to equilibrate the sensor chip and the instrument.
Immobilization of anti-GST Antibody. A CM5 sensor chip was docked and the system was primed three times with filtered and degassed PBST containing 5% (v/v) DMF. Affinity purified and sterile filtered goat-anti-GST IgG (0.8 mg/mL in 150 mM NaCl) from the Biacore GST kit for fusion capture was diluted to 30 μg/mL in 10 mM sodium acetate, pH 5.0 (100 μL per immobilization). Two flow cells were activated with 1:1 NHS:EDC (N-hydroxysuccinimide:[…]) for 8 minutes at a flow rate of 5 μL/min using the “surface preparation: immobilization: amine coupling” wizard application. […]

Chain of HPV-16 E2 protein (P03120 whole entry, the tested form may be a part): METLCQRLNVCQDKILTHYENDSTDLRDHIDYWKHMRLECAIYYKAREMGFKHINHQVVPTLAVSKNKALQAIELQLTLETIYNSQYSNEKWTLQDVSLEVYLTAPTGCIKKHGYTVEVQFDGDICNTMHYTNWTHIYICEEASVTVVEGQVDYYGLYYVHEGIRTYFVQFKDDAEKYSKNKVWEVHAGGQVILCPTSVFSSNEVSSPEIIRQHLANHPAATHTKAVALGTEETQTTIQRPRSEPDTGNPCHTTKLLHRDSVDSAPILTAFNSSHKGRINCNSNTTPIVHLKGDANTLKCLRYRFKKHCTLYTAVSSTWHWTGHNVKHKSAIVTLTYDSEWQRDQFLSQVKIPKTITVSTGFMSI

SMILES: Cn1nnnc1SC[C@@H]1C[C@H](c2ccc(CO)cc2)O[C@H](c2ccc(CN)cc2)O1 [compound 2]
- Kd: 2.7 nM

— patent publication US20050123902A1, “Human papillomavirus inhibitors” (priority 2003, published 2005)
